Activity calls are given as the source filed them. The calls are words filed in the database; no cut-off is given here.
Assays:
[1] = target: T1, Histone acetyltransferase p300 (Homo sapiens, UniProt Q09472); assay: Binding affinity to recombinant EP300 bromodomain (unknown origin) assessed as change in melting temperature by differential scanning fluorimetry method
CWR22R = assay: Antiproliferative activity against human 22Rv1 cells incubated for 5 days by CCK-8 method; format: functional, cell-based; details: 22Rv1, 120 h
[2] = target: T2, CREB-binding protein/Histone acetyltransferase p300 (Homo sapiens) (UniProt Q09472+Q92793); assay: Inhibition of EP300/CBP bromodomain in human OPM-2 cells assessed as suppression of c-myc expression incubated for 3 days by Western blot analysis; format: cell-based; details: dose 0.8-5 µM, time 3.0 day, DDE = dose-dependent effect
OPM-2 [3] = assay: Antiproliferative activity against human OPM-2 cells incubated for 5 days by CCK-8 method; format: functional, cell-based; details: OPM-2, 120 h
SCC-9 = assay: Antiproliferative activity against human SCC-9 cells incubated for 5 days by CCK-8 method; format: functional, cell-based; details: SCC-9, 120 h
[4] = target: T1, Histone acetyltransferase p300; assay: Inhibition of EP300 bromodomain (unknown origin) incubated for 20 mins by AlphaLISA method
MCF7 = assay: Antiproliferative activity against human MCF7 cells incubated for 5 days by CCK-8 method; format: functional, cell-based; details: MCF7, 120 h
OPM-2 [5] = assay: Induction of apoptosis in human OPM-2 cells assessed as apoptotic cells at 3 uM incubated for 72 hrs by annexin V-FITC/PI staining based flow cytometry analysis; format: functional
OPM-2 [6] = assay: Induction of cell cycle arrest in human OPM-2 cells assessed as accumulation of cells at G1/G0 phase at 5 uM incubated for 48 hrs by PI staining based flow cytometry analysis (reference value: 34.25 %); format: functional
[7] = target: T2, CREB-binding protein/Histone acetyltransferase p300 (Homo sapiens); assay: Inhibition of EP300/CBP bromodomain in human OPM-2 cells assessed as suppression of c-myc expression at <= 1 uM incubated for 3 days by Western blot analysis; format: cell-based; details: time 3.0 day
[8] = target: T2, CREB-binding protein/Histone acetyltransferase p300 (Homo sapiens); assay: Inhibition of EP300/CBP bromodomain in human SCC-9 cells assessed as suppression of c-myc expression at 0.8 to 5 uM incubated for 3 days by Western blot analysis; format: cell-based; details: dose 0.8-5 µM, time 3.0 day
[9] = target: T2, CREB-binding protein/Histone acetyltransferase p300 (Homo sapiens); assay: Inhibition of EP300/CBP bromodomain in human 22Rv1 cells assessed as suppression of c-myc expression at 0.8 to 5 uM incubated for 3 days by Western blot analysis; format: cell-based; details: dose 0.8-5 µM, time 3.0 day

T1 sequence (Q09472 whole entry): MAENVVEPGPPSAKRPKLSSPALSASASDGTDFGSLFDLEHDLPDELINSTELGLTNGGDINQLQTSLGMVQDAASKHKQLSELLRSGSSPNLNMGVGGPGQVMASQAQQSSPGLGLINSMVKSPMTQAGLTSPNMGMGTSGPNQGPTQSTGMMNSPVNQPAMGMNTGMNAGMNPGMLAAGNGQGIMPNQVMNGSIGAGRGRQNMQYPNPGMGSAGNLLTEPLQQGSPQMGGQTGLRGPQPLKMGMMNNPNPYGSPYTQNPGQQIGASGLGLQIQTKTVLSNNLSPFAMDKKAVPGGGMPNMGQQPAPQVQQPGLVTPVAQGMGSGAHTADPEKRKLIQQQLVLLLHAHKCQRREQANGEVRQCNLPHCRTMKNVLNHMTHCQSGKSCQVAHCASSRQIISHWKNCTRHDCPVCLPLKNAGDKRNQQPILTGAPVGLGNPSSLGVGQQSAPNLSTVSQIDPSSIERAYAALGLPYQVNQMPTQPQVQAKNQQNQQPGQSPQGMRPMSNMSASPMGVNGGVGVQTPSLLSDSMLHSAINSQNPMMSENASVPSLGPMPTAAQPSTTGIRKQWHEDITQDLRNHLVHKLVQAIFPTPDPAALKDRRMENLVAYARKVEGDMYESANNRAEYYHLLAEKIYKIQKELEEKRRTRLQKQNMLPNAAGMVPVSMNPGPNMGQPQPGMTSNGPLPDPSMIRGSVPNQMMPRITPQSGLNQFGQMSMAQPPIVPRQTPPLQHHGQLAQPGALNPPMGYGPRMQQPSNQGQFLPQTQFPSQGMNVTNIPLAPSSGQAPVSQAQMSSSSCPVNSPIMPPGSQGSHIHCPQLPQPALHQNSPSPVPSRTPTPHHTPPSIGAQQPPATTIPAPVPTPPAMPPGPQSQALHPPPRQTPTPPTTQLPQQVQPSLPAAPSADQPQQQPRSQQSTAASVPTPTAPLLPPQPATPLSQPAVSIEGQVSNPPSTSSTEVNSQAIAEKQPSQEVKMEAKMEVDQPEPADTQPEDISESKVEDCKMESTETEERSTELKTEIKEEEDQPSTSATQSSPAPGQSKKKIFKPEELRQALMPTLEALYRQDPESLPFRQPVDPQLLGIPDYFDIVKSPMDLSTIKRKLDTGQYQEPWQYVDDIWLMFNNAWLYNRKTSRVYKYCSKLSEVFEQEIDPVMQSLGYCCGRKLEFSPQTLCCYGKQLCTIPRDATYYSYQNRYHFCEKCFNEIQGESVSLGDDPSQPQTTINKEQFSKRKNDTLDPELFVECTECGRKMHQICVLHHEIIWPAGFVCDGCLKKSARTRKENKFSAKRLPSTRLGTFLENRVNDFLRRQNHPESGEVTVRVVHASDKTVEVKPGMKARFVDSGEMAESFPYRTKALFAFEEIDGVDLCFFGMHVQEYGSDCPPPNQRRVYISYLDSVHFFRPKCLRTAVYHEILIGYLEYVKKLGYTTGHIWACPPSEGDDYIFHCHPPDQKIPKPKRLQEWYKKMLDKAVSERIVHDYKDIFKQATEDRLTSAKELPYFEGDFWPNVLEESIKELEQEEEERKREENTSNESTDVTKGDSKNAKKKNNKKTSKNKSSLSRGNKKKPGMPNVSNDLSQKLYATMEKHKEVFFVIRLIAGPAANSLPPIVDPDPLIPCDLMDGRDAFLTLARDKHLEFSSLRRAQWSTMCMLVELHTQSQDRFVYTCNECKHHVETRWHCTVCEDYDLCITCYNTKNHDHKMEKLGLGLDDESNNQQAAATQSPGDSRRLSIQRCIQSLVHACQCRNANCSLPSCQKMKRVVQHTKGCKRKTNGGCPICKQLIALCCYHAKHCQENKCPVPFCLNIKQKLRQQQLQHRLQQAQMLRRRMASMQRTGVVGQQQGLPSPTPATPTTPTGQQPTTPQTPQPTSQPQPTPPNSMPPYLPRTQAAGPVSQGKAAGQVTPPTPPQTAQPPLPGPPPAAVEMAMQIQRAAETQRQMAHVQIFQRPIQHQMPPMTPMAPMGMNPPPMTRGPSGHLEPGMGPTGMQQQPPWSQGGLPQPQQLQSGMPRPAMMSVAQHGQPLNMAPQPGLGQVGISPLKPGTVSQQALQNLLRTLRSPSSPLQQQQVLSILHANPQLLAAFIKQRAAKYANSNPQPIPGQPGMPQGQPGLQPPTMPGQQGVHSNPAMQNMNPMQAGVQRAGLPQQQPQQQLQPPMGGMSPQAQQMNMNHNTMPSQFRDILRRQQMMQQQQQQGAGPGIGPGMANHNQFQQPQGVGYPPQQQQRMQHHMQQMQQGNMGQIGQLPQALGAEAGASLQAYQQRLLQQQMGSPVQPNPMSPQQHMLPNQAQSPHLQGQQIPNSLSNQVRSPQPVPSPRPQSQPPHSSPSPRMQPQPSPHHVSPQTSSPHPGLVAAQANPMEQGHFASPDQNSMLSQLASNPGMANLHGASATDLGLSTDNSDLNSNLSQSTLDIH
T2 sequence (Q09472 whole entry, looked up): as the sequence (Q09472 whole entry) above
T2 sequence (Q92793 whole entry, looked up): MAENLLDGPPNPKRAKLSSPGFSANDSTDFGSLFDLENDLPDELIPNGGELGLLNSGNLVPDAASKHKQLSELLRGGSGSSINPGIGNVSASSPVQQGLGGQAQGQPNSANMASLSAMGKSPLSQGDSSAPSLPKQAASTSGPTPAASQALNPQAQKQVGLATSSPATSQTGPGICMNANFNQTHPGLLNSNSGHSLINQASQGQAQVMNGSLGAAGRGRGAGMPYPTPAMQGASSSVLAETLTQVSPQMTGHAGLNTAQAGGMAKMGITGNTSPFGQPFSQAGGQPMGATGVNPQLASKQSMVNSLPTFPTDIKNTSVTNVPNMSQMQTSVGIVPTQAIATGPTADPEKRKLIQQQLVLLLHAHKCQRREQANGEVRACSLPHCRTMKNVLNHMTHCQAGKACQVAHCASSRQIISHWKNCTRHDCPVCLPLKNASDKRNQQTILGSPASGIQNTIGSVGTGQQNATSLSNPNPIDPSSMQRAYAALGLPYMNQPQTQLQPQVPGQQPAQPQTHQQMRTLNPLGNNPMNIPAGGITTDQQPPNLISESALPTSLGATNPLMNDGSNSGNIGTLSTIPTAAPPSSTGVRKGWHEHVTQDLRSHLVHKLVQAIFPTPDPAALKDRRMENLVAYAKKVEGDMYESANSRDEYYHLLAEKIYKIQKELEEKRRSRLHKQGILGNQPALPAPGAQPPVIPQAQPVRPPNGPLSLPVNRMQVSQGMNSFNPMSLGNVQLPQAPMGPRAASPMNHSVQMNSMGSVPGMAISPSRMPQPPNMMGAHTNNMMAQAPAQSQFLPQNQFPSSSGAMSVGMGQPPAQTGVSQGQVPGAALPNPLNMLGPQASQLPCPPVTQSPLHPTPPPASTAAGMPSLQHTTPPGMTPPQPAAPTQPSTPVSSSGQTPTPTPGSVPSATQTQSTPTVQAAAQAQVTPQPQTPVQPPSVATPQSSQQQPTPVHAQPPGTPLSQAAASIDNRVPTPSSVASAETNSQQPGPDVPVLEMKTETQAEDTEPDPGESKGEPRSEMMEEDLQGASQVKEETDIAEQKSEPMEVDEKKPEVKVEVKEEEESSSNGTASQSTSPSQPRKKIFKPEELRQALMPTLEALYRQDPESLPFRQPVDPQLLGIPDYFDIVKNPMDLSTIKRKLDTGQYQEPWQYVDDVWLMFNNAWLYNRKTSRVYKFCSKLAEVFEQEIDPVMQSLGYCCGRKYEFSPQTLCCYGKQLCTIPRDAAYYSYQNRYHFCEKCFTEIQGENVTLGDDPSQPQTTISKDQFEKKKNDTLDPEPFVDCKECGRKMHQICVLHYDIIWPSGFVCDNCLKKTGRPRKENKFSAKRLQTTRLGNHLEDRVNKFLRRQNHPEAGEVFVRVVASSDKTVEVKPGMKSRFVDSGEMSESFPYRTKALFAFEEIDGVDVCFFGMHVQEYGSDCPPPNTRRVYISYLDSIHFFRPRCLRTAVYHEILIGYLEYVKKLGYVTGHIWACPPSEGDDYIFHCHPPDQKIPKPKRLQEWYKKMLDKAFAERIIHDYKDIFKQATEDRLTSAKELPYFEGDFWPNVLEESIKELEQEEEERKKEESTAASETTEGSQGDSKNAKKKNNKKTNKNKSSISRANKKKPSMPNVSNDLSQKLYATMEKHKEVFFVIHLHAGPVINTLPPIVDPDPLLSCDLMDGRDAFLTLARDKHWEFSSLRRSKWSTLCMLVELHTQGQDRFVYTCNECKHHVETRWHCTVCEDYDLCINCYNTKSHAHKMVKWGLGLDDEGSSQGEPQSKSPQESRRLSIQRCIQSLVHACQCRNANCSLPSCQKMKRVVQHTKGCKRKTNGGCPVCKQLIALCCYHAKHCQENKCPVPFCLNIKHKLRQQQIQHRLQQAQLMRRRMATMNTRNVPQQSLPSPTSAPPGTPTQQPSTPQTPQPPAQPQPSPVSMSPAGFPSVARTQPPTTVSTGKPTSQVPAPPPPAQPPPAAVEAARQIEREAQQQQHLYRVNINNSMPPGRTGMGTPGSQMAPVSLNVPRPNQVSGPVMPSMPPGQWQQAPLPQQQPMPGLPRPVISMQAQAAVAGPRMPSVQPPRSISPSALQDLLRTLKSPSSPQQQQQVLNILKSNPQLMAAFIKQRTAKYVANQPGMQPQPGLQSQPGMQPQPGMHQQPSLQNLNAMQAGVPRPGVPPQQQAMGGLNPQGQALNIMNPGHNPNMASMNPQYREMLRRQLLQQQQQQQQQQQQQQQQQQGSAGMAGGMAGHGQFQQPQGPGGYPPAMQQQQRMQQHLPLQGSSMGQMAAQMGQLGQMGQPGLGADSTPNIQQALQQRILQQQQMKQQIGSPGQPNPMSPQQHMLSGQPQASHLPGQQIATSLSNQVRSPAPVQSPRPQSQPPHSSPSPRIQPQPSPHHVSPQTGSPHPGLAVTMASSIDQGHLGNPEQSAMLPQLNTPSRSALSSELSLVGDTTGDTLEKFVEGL

Work on `COc1ccc(CCc2nc3cc(CC#N)ccc3n2C[C@H](C)N2CCOCC2)cc1Cl` yielded a ΔTm [1] of 1.44 °C.
In the case of `COc1ccc(CCc2nc3cc(-c4c(C)noc4C)ccc3n2[C@H]2CC[C@H](OC)CC2)cc1Cl`, the IC50 (CWR22R) is reported as > 10000 nM, the Activity [2] is reported as “Dde” and the IC50 (OPM-2 [3]) is reported as 2290 nM. For the same compound, the IC50 (SCC-9) was 2550 nM, the IC50 [4] was 97 nM and the IC50 (MCF7) was 5650 nM.
`COc1ccc(CCc2nc3cc(-c4c(C)noc4C)ccc3n2C2CCN(S(C)(=O)=O)CC2)cc1Cl` showed an IC50 [4] of 148 nM.
`COc1ccc(CCc2nc3cc(-c4c(C)noc4C)ccc3n2[C@H]2CC[C@H](C(F)(F)F)CC2)cc1Cl` gave an IC50 [4] of 894 nM.
With `COc1ccc(N2C(=O)C[C@@H]2c2nc3cc(-c4c(C)noc4C)ccc3n2[C@H]2CC[C@H](OC)CC2)cc1Cl` the IC50 (CWR22R) was 3680 nM, the Activity [2] was “Dde” and the IC50 (OPM-2 [3]) was 1540 nM. It also gave an IC50 (SCC-9) of 3170 nM, an IC50 [4] of 81 nM and an IC50 (MCF7) of 1990 nM.
In the case of `COc1ccc(CCc2nc3cc(-c4c(C)noc4C)ccc3n2C2CC(C)(C)OC(C)(C)C2)cc1Cl`, the IC50 [4] is reported as 112 nM.
With `Cc1noc(C)c1-c1ccc2c(c1)nc(C1CC1c1ccccc1)n2[C@H]1CC[C@H](O)CC1` (stereo partly drawn) the IC50 [4] was 263 nM.
Compound `COc1ccc(CCc2nc3cc(C(C)=O)ccc3n2C[C@H](C)N2CCOCC2)cc1Cl` has a ΔTm [1] of 4.1 °C.
`COc1ccc(CCc2nc3cc(-c4c(C)noc4C)ccc3n2[C@H]2CC[C@H](O)CC2)cc1Cl` showed an IC50 (CWR22R) of 6830 nM, an IC50 (OPM-2 [3]) of 1390 nM and an IC50 (SCC-9) of 3680 nM. It also gave an Activity (OPM-2 [5]) of 28.49%, an Activity (OPM-2 [6]) of 90% and an IC50 [4] of 48 nM. The Activity [7] was “Active” and the IC50 (MCF7) was 2820 nM.
Compound `COc1ccc(CCc2nc3cc(-c4cnn(C)n4)ccc3n2C[C@H](C)N2CCOCC2)cc1Cl` has a ΔTm [1] of 4.34 °C.
`CNC(=O)Nc1ccc2c(c1)nc(CCc1ccc(OC)c(Cl)c1)n2C[C@H](C)N1CCOCC1` showed a ΔTm [1] of 3.53 °C.
`COc1ccc(CCc2nc3cc(-c4c(C)noc4C)ccc3n2[C@H]2C[C@H](O)C2)cc1Cl` showed an IC50 [4] of 155 nM.
In the case of `COc1ccc(N2C(=O)C[C@H]2c2nc3cc(-c4c(C)noc4C)ccc3n2[C@H]2CC[C@H](OC)CC2)cc1Cl`, the IC50 (CWR22R) is reported as 3740 nM, the IC50 (OPM-2 [3]) is reported as 1090 nM and the Activity [8] is reported as “Active”. For the same compound, the IC50 (SCC-9) was 1850 nM, the Activity [9] was “Active” and the Activity (OPM-2 [5]) was 38.27%. The Activity (OPM-2 [6]) was 90%, the IC50 [4] was 49 nM and the Activity [7] was “Active”. For the same compound, the IC50 (MCF7) was 960 nM.
Compound `COc1ccc(CCc2nc3cc(-c4cnn(C)c4)ccc3n2C[C@H](C)N2CCOCC2)cc1Cl` has a ΔTm [1] of 2.95 °C.
With `COc1ccc(CCc2nc3cc(NC(C)=O)ccc3n2C[C@H](C)N2CCOCC2)cc1Cl` the ΔTm [1] was 2.97 °C.
Compound `COc1ccc(CCc2nc3cc(S(C)(=O)=O)ccc3n2C[C@H](C)N2CCOCC2)cc1Cl` has a ΔTm [1] of 1.07 °C.
With `CNC(=O)c1ccc2c(c1)nc(CCc1ccc(OC)c(Cl)c1)n2C[C@H](C)N1CCOCC1` the ΔTm [1] was 2.1 °C.
`COc1ccc(CCc2nc3cc(NS(C)(=O)=O)ccc3n2C[C@H](C)N2CCOCC2)cc1Cl` was tested, and the ΔTm [1] was 2.51 °C.
For `COc1ccc(CCc2nc3cc(-c4c(C)noc4C)ccc3n2C2CCN(C(C)=O)CC2)cc1Cl`, the IC50 [4] was 94 nM.
`COc1ccc2c(Cc3nc4cc(-c5c(C)noc5C)ccc4n3[C@H]3CC[C@H](O)CC3)cc(=O)oc2c1` gave an IC50 [4] of 48 nM.
With `COc1ccc(CCc2nc3cc(C4(C)COC4)ccc3n2C[C@H](C)N2CCOCC2)cc1Cl` the ΔTm [1] was 2.21 °C.
Work on `COc1ccc(CCc2nc3cc(-c4c(C)noc4C)ccc3n2C2CCC(F)(F)CC2)cc1Cl` yielded an IC50 [4] of 83 nM.
In the case of `COc1ccc(CCc2nc3cc(-c4c(C)noc4C)ccc3n2C[C@H](C)N2CCOCC2)cc1Cl`, the IC50 (CWR22R) is reported as > 10000 nM, the IC50 (OPM-2 [3]) is reported as 2640 nM and the IC50 (SCC-9) is reported as 6420 nM. The ΔTm [1] was 4.5 °C and the IC50 (MCF7) was 2390 nM.

Source: ChEMBL document CHEMBL5120873, “Discovery of novel benzimidazole derivatives as potent p300 bromodomain inhibitors with anti-proliferative activity in multiple cancer cells” (Bioorg Med Chem, 2022)
